Measured values taken from patent US20040048772A1, “Preventives for arthritis” (priority 2001, published 2004).

Assays:
[1] = tested on: Mice with Type II Collagen-Induced Arthritis; test: Effect of N-acetylhydroxyproline in mice with type II collagen-induced arthritis (arthritis score, preventive feeding); type: in vivo, DBA/1J mice; details: for Score of arthritis: mean±SE, N=20, score 0-16 points
Excerpt: Effect of N-acetylhydroxyproline in Mice with Type II Collagen-Induced Arthritis
It is known that arthritis is induced in DBA/1J mice (Charles River) by administering type II collagen two times.
As the first administration of type II collagen, a solution prepared by mixing an equal amount of type II collagen [Collagen Gijutsu Kenshu-Kai (MCK)] and Freund's complete adjuvant (Iatron) and emulsifying the mixture using a homogenizer was intradermally administered to 6-week old male DBA/1J mice (Charles River) in an amount of 100 μl per one animal.
At day 21 after the first administration of type II collagen, as the second administration of type II collagen, a solution prepared by mixing an equal amount of type II collagen and Freund's complete adjuvant and emulsifying the mixture using a homogenizer in a similar manner was intradermally administered to the animals in an amount of 100 μl per one animal. In this manner, arthritis was induced in mice.
Starting on the day of the first administration of type II collagen, the mice were bred by feeding a powder feed, CE-2 (CLEA Japan), containing the addition of 0.02, 0.1 or 0.5% (hereinafter % refers to wt %) of N-acetylhydroxyproline (Kyowa Hakko Kogyo). As control, a group of mice were fed with the powder feed CE-2 containing no additive. At days 23, 27, 30, 33, 36, 40 and 42 after the first administration of type II collagen, the extent of the onset of arthritis was scored according to the following indices.
Scoring was carried out by applying 0-4 points with respect to […] of mice: 0: no symptom; 1: swelling of one finger or swelling (slight) of ankles; 2: swelling of 1-3 fingers or swelling of ankles; 3: swelling of 3-5 fingers plus swelling of ankles; and 4: swelling of all the fingers plus swelling of ankles. Each mouse was scored the total of the points of 4 paws, namely, 0-16 points. Twenty mice each were subjected to observation with respect to each of the conditions.
In the table, the figures show the score under different treatment conditions, which is given as mean±SE (N=20).
In the table, “no treatment” means no treatment with type II collagen.

[2] = tested on: systemic injury of ear and tail; chondral injury at joints; details: in vivo; cited from earlier work
[3] = tested on: animal model for arthritis; details: administration after induction of arthritis; cited from earlier work

In the case of CC(=O)N1C[C@H](O)C[C@H]1C(=O)O [N-Acetylhydroxyproline, N-acetylhydroxyproline], the “Rising of the score of arthritis compared with feed containing no additive” value ([1]; 0.02% in powder feed CE-2) is reported as “suppressive tendency”, the Score of arthritis ([1]; 0.02% in powder feed CE-2, day 23) is reported as 0.0 ± 0.0 and the Score of arthritis ([1]; 0.02% in powder feed CE-2, day 27) is reported as 4.2 ± 0.8. For the same compound, the Score of arthritis ([1]; 0.02% in powder feed CE-2, day 30) was 7.6 ± 0.9, the Score of arthritis ([1]; 0.02% in powder feed CE-2, day 33) was 9.3 ± 0.8 and the Score of arthritis ([1]; 0.02% in powder feed CE-2, day 36) was 9.7 ± 0.9. The Score of arthritis ([1]; 0.02% in powder feed CE-2, day 40) was 10.0 ± 0.8, the Score of arthritis ([1]; 0.02% in powder feed CE-2, day 42) was 10.1 ± 0.9 and the Score of arthritis ([1]; 0.02% in powder feed CE-2 from first collagen administration, day 0) was 0.0 ± 0.0. For the same compound, the “Rising of the score of arthritis compared with feed containing no additive” value ([1]; 0.1% in powder feed CE-2) was “suppressive tendency”, the Score of arthritis ([1]; 0.1% in powder feed CE-2, day 23) was 0.1 ± 0.1 and the Score of arthritis ([1]; 0.1% in powder feed CE-2, day 27) was 4.6 ± 0.9. It also gave a Score of arthritis ([1]; 0.1% in powder feed CE-2, day 30) of 7.3 ± 1.0, a Score of arthritis ([1]; 0.1% in powder feed CE-2, day 33) of 8.3 ± 1.1 and a Score of arthritis ([1]; 0.1% in powder feed CE-2, day 36) of 8.6 ± 1.0. It also gave a Score of arthritis ([1]; 0.1% in powder feed CE-2, day 40) of 8.5 ± 1.0, a Score of arthritis ([1]; 0.1% in powder feed CE-2, day 42) of 8.7 ± 1.0 and a Score of arthritis ([1]; 0.1% in powder feed CE-2 from first collagen administration, day 0) of 0.0 ± 0.0. The “Scores of arthritis compared with control (feed containing no addition)” value ([1]; 0.5% in powder feed CE-2) was “significantly low”, the Score of arthritis ([1]; 0.5% in powder feed CE-2, day 23) was 0.0 ± 0.0 and the Score of arthritis ([1]; 0.5% in powder feed CE-2, day 27) was 3.8 ± 0.7. It also gave a Score of arthritis ([1]; 0.5% in powder feed CE-2, day 30) of 5.9 ± 0.9, a Score of arthritis ([1]; 0.5% in powder feed CE-2, day 33) of 7.7 ± 0.8 and a Score of arthritis ([1]; 0.5% in powder feed CE-2, day 36) of 8.1 ± 0.8. For the same compound, the Score of arthritis ([1]; 0.5% in powder feed CE-2, day 40) was 8.4 ± 0.7, the Score of arthritis ([1]; 0.5% in powder feed CE-2, day 42) was 8.5 ± 0.7 and the Score of arthritis ([1]; 0.5% in powder feed CE-2 from first collagen administration, day 0) was 0.0 ± 0.0. For the same compound, the Onset of arthritis ([1]; taken previously, before the onset of arthritis) was “could be suppressed”, the “Effect on chondral injury at joints” value [2] was “no effect” and the “Effect on systemic injury of ear and tail” value [2] was “shows a therapeutic effect”. For the same compound, the Aggravation of arthritis [3] was “can prevent aggravation of arthritis”.
